Laboratory results published in patent US12311025B2, “Formulations for eye treatments” (Avedro, Inc., priority 2017, dated 2025).
In brackets after ≈: the same amount, converted by molar mass.

What was measured:
[1] = Solubility of FMN in co-solvents; type: physicochemical; details: organic solvent or mixture
From the text: Other penetration-enhancing agents may include a non-ionic co-solvent as a tonicity agent in a formulation. Tonicity agents that are sufficiently low in MW can readily diffuse into the tissues. The therapeutic agent having good solubility in the co-solvent can experience enhanced delivery through the epithelium and into the stroma. Propylene glycol may be a penetration enhancer for topical formulations by this mechanism of action. Thus, the one or more therapeutic formulations 304 may include one or more co-solvents as tonicity agents 304c. A list of co-solvents that may be used to increase therapeutic agent delivery via this mechanism of action and suitable for ophthalmic use are shown in TABLE 2.
Both propylene glycol and glycerin may be employed as ingredients in dry eye drops. Glycerin has been evaluated for therapeutic agent delivery into the eye and is capable of penetrating the cornea. For instance, FMN has solubility in propylene glycol and glycerin that is greater than the total concentration in the formulation. As the co-solvent penetrates the tissues, it may carry some FMN into the tissues as well enhancing the delivery. Replacing the sodium chloride with glycerin or propylene glycol should not negatively impact therapeutic agent delivery of the FMN.

[2] = cited from earlier work

Cc1cc2nc3c(=O)[nH]c(=O)nc-3n(C[C@H](O)[C@H](O)[C@H](O)COP(=O)(O)O)c2cc1C [FMN, riboflavin-5′-phosphate]
solubility ([1]; in ethanol): 80 µg/mL (≈ 0.175 mM) | solubility ([1]; in glycerin): 8900 µg/mL (≈ 19.5 mM) | solubility ([1]; in propylene glycol): 5700 µg/mL (≈ 12.5 mM)

CC1CCC(C(C)C)C(O)C1 (stereo not shown) [menthol]
solubility in water [2]: 0.04%
